Assay results from US20140235643A1, “NOVEL QUINOXALINE INHIBITORS OF PI3K” (GILEAD CALISTOGA LLC, priority 2011, published 2014).
pEC50, pIC50: −log10 of the molar value.

How the values were obtained:
[1] = molecular target: T1, PI3Kα (p110α/p85α) (Homo sapiens, UniProt P42336); experiment: PI3K biochemical enzyme assay (Adapta universal kinase assay), p110 alpha/p85 alpha; settings: for pIC50: Table 1, lower part, read-out: PI3Kα IC50
T1 construct: purchased Invitrogen
Protocol: (§1) This example describes a method of obtaining in vitro activity data concerning the effect of compounds of on various PI3K isoforms. The effect of compounds on the kinase activity of Class I PI3Ks was measured at Invitrogen by using the Adapta® universal kinase assay. It was a homogenous, fluorescent based immunoassay for the detection of ADP produced by the kinase reaction. This assay can be divided into two phases: a kinase reaction phase, and an ADP detection phase. In the kinase reaction phase, all components required for the kinase reaction were added to the well, and the reaction was allowed to incubate for 60 minutes. After the reaction, a detection solution consisting of a europium labeled anti-ADP antibody, an Alexa Fluor® 647 labeled ADP tracer, and EDTA (to stop the kinase reaction) was added to the assay well. ADP formed by the kinase reaction (in the absence of an inhibitor) displaced the Alexa Fluor® 647 labeled ADP tracer from the antibody, resulting in a decrease in the TR-FRET signal.
(§2) ADP formation was determined by calculating the emission ratio from the assay well. The emission ratio was calculated by dividing the intensity of the tracer (acceptor) emission by the intensity of the Eu (donor) emission at 615 nm as shown in the equation below.
(§3) The Test Compounds were screened in 1% DMSO (final) in the well. All Substrate/Kinase Mixtures were diluted to a 2× working concentration in the appropriate Kinase Buffer as described below for the individual kinase:
(§4) The 2× p110 alpha/p85 alpha/PIP2:PS mixture was prepared in 50 mM HEPES pH 7.5, 100 mM NaCl, 0.03% CHAPS, 3 mM mgCl2, 1 mM EGTA. The final 10 μL Kinase Reaction consisted of 0.3-1.5 ng p110 alpha/p85 alpha and 50 μM PIP2:PS in 32.5 mM HEPES pH 7.5, 50 mM NaCl, 0.015% CHAPS, 1.5 mM mgCl2, 0.5 mM EGTA. After the 1 hour Kinase Reaction incubation, 5 μL of Detection Mix was added.
(§5) The Detection mix consisted of EDTA (30 mM), Eu-anti-ADP antibody (30 nM) and ADP tracer. All ATP Solutions were diluted to a 4× working concentration in water and used at the Km apparent concentrations for each individual kinase.

[2] = molecular target: T2, PI3Kγ (p110 gamma) (Homo sapiens, UniProt P48736); experiment: PI3K biochemical enzyme assay (Adapta universal kinase assay), p110 gamma; settings: for pIC50: Table 1, lower part, read-out: PI3Kγ IC50; for inhibition at 1 µM / inhibition at 10 µM: read-out: PI3Kγ % inhib; for increase in gamma potency compared to analog without amino substituent on the purine ring: Q17 vs Q16, Q15 vs Q14
T2 construct: purchased Invitrogen
Protocol: as §1, §2, §3
The 2× p110 gamma/PIP2:PS mixture was prepared in 50 mM HEPES pH 7.5, 1 mM EGTA, 3 mM mgCl2. The final […] Kinase Reaction consisted of 3.5-26 ng p110 gamma and 50 μM PIP2:PS in 32.5 mM HEPES pH 7.5, 0.5 mM EGTA, 1.5 mM mgCl2. After the 1 hour Kinase Reaction incubation, 5 μL of Detection Mix was added.
as §5

[3] = molecular target: T3, PI3Kβ (p110β/p85α) (Homo sapiens, UniProt P42338); experiment: PI3K biochemical enzyme assay (Adapta universal kinase assay), p110 beta/p85 alpha; settings: for pIC50: Table 1, lower part, read-out: PI3Kβ IC50; for inhibition at 10 µM: read-out: PI3Kβ % inhib
T3 construct: purchased Invitrogen
Protocol: as §1, §2, §3
The 2× p 110beta/p85 alpha/PIP2:PS mixture was prepared in 50 mM HEPES pH 7.5, 100 mM NaCl, 0.03% CHAPS, 1 mM EGTA, 3 mM mgCl2, and 2 mM DTT. The final 10 μL Kinase Reaction consisted of 35.4 ng p110 beta/p85 alpha and 50 μM PIP2:PS. After the 1 hour Kinase Reaction incubation, 5 μL of Detection Mix was added.
as §5

[4] = molecular target: T4, PI3Kδ (p110δ/p85α) (Homo sapiens, UniProt O00329); experiment: PI3K biochemical enzyme assay (Adapta universal kinase assay), p110 delta/p85 alpha; settings: for pIC50: Table 1, lower part, read-out: PI3Kδ IC50
T4 construct: purchased Invitrogen
Protocol: as §1, §2, §3
as §4, with “p110 delta/p85” for “p110 alpha/p85”, “of 0.35-2.6” for “of 0.3-1.5”, “incubation, […]” for “incubation, 5”
as §5

[5] = molecular target: T5, PI3Kγ (Mus musculus, UniProt Q9JHG7); experiment: PI3Kγ-dependent cell-based assay: C5a-mediated AKT phosphorylation in RAW-264 cells; design: species or system murine; settings: C5a-induced AKT phosphorylation, RAW-264 macrophages
T5 construct: endogenous in cells; host or cells: RAW-264 macrophage cells (ATCC)
Protocol: (§6) PDGF-BB-induced AKT phosphorylation in Swiss-3T3 fibroblasts is mediated by p110α. C5a-induced AKT phosphorylation in RAW-264 murine macrophages is mediated exclusively by p110γ.
PI3Kγ-Dependent Cell-Based Assay: C5a-Mediated AKT Phosphorylation in RAW-264 Cells
RAW-264 macrophage cells (American Type Culture Collection) were cultured with Dulbecco's modified Eagle medium (DMEM) containing 10% fetal bovine serum and the antibiotics penicillin and streptomycin. Cells were seeded on a 96-well Tissue Culture Plate at 100,000 to 200,000 cells/well the day before the experiment. Next day, cells were starved for 2 hr in 0.1% FBS containing medium. The cells were pretreated with inhibitors or DMSO for 2 hr and stimulated for 5 min with 75 ng/ml C5a (R&D) at 37° C. in 5% CO2. The culture medium was removed and cells were fixed for 20 min at room temperature by addition of 100 μl of 4% cell fixing buffer to each well. AKT phosphorylation and total AKT was detected by ELISA.
(§7) Detection of Phospho-Ser-473 AKT and Total AKT by ELISA
(§8) The fixed cells were washed twice with 150 μl of wash buffer (WB) and quenched by incubating with 100 μl of Quenching Buffer for 20 min at room temperature. Cells were washed once with 150 μl WB and blocked by incubating with 100 μl of Blocking Buffer for 1 hr at room temperature. Cells were incubated with 50 μl of primary antibody diluted in Blocking Buffer, either phospho-Ser-473 AKT specific (1:150 dilution) or total-AKT antibody (1:200 dilution), to each specific well. The negative control wells contained 50 μl of Blocking Buffer. Plates were sealed with plate sealing film and incubated overnight at 4° C. Cells were washed twice with 150 μl WB followed by addition of 50 μl per well of DELFIA secondary antibody (50 ng/well, diluted in DELFIA Assay Buffer). After 2 hr incubation at room temperature, cells were washed 4 times with 150 μl of Europium Wash Solution followed by addition of 100 μl of DELFIA Enhancing Solution to each well. Plates were incubated for 5 min in the dark and fluorescent signal was read using SpectraMax M5™ (Molecular Devices). Total AKT level was determined to verify equal cell number per well. The average background fluorescence values from wells that received vehicle control in the absence of PDGF-BB or C5a were subtracted from all the values of experimental conditions. Fluorescence values corresponding to phosphorylated AKT from wells that received PDGF-BB or C5a were normalized to 100% and compound effect was plotted as % change relative to the vehicle control.

[6] = molecular target: T6, PI3Kα (Mus musculus, UniProt P42337); experiment: PI3Kα-dependent cell-based assay: PDGF-BB mediated AKT phosphorylation in Swiss-3T3 cells; settings: PDGF-BB-induced AKT phosphorylation, Swiss-3T3 fibroblasts
T6 construct: endogenous in cells; host or cells: Swiss-3T3 fibroblasts (ATCC)
Protocol: as §6
PI3Kα-Dependent Cell-Based Assay: PDGF-BB Mediated AKT Phosphorylation in Swiss-3T3 Cells
Swiss-3T3 fibroblasts (American Type Culture Collection) were cultured with DMEM containing 10% fetal bovine serum and the antibiotics penicillin and streptomycin. Cells were seeded on a 96-well Tissue Culture Plate at 25,000 cells/well and allowed to reach at least 90% confluency. The cells were starved for 2 to 12 hr in 0.1% FBS containing medium and then were pretreated with inhibitors or DMSO for 2 hr. The cells were stimulated for 15 min with 10 ng/ml PDGF-BB (Cell Signaling Technology) at 37° C. in 5% CO2. The culture medium was removed and cells were fixed for 20 min at room temperature by addition of 100 μl of 4% cell fixing buffer to each well. AKT phosphorylation and total AKT was detected by ELISA.
as §7, §8

T1 sequence (P42336 whole entry): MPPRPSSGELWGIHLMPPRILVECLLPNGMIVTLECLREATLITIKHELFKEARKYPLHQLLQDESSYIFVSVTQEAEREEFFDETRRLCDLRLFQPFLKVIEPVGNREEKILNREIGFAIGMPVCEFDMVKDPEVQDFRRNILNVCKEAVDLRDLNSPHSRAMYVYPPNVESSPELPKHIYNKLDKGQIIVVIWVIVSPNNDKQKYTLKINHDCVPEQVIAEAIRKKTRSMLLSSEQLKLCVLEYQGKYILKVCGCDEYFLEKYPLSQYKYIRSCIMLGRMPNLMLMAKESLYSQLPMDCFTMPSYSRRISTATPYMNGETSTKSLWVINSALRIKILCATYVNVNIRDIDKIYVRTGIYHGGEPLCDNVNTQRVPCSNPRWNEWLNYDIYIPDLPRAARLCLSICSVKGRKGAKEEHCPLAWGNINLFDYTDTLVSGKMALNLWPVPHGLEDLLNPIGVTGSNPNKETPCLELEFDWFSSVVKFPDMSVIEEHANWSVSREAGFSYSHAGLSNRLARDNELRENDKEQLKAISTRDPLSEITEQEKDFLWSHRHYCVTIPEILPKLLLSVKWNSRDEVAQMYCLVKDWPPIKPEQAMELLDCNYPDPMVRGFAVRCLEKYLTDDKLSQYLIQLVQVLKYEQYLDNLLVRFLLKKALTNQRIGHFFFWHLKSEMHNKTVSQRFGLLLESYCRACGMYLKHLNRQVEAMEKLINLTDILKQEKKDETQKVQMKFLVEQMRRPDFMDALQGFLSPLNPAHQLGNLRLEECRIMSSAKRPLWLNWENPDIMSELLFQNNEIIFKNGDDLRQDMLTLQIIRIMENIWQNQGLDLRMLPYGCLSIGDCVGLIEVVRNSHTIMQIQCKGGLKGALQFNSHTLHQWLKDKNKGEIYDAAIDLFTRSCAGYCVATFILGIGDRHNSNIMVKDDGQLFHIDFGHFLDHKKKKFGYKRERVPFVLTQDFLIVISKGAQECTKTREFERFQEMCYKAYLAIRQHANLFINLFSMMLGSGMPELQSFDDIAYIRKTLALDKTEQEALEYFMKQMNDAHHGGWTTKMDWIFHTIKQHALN
T1 sequence (P27986 whole entry partner): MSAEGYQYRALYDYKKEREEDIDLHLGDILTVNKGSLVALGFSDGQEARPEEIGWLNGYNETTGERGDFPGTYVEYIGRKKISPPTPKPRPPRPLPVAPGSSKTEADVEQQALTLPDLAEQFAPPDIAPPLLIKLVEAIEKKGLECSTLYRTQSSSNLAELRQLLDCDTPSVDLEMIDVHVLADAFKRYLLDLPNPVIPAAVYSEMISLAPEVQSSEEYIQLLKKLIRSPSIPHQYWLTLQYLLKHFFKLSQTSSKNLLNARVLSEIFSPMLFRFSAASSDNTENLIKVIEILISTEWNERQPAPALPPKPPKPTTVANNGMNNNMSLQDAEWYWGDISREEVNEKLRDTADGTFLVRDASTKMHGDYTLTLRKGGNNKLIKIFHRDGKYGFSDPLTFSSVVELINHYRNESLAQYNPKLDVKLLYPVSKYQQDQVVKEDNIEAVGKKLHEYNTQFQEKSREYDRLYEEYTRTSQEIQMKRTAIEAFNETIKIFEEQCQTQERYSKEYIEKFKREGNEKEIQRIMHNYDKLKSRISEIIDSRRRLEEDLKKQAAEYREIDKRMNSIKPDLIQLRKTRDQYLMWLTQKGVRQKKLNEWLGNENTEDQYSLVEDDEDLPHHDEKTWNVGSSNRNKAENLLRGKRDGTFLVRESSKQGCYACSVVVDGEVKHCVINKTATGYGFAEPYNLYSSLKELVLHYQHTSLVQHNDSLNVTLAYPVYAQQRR
T2 sequence (P48736 whole entry): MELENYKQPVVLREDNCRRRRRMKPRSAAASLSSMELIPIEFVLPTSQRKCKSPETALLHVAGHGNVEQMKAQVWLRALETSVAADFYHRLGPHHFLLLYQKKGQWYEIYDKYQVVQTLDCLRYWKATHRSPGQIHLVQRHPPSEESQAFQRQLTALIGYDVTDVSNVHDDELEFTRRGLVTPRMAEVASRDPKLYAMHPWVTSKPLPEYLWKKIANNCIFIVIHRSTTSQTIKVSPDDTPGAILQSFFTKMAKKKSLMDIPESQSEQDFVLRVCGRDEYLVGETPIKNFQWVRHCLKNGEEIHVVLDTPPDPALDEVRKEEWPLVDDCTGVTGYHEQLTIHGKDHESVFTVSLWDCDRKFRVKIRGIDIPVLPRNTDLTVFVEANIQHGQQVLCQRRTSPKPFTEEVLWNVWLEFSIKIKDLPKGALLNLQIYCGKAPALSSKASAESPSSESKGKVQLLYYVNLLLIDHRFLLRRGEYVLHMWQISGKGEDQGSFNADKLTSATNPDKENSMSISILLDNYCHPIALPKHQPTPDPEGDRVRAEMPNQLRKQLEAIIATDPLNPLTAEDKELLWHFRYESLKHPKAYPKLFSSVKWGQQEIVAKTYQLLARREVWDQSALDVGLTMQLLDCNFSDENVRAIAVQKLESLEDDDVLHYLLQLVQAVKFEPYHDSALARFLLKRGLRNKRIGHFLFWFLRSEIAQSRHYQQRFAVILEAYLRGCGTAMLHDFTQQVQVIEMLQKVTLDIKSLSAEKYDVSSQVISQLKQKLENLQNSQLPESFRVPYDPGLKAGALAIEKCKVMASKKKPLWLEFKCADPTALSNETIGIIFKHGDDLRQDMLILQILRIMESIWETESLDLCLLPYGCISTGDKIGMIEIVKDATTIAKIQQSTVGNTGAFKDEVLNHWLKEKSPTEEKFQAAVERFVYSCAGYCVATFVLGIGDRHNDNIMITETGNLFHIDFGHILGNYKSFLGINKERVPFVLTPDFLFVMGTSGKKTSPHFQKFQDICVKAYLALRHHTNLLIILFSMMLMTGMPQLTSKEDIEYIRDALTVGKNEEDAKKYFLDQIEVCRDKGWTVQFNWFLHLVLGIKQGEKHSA
T3 sequence (P42338 whole entry): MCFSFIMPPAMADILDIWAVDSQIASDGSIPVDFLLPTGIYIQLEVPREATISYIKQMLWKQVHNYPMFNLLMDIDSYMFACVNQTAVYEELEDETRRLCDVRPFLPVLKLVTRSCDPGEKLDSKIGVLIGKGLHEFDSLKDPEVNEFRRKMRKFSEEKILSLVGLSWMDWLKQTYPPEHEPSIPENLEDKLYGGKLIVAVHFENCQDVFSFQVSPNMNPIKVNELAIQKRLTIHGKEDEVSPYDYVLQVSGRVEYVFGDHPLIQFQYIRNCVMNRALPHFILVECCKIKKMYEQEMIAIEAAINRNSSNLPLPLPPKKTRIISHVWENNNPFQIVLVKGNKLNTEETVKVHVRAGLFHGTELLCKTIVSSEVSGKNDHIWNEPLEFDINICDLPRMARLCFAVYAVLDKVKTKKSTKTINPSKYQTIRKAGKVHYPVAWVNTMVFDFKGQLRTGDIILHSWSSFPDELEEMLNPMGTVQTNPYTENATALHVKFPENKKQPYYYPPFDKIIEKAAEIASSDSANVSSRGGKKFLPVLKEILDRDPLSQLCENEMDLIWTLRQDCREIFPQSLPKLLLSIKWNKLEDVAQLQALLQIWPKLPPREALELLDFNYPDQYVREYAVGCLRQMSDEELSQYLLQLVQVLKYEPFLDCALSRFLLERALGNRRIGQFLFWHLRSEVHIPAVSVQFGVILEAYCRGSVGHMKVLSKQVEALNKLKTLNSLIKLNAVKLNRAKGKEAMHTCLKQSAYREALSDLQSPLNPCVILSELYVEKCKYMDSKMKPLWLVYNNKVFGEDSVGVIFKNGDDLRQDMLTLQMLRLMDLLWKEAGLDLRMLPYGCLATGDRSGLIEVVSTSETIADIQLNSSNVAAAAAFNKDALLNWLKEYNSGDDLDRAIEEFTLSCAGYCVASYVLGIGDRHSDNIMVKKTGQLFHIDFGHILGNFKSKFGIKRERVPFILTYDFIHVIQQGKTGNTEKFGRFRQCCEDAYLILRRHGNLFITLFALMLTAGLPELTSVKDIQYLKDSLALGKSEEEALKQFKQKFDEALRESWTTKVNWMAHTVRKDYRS
T3 sequence (P27986 whole entry partner): as the sequence (P27986 whole entry partner) above
T4 sequence (O00329 whole entry): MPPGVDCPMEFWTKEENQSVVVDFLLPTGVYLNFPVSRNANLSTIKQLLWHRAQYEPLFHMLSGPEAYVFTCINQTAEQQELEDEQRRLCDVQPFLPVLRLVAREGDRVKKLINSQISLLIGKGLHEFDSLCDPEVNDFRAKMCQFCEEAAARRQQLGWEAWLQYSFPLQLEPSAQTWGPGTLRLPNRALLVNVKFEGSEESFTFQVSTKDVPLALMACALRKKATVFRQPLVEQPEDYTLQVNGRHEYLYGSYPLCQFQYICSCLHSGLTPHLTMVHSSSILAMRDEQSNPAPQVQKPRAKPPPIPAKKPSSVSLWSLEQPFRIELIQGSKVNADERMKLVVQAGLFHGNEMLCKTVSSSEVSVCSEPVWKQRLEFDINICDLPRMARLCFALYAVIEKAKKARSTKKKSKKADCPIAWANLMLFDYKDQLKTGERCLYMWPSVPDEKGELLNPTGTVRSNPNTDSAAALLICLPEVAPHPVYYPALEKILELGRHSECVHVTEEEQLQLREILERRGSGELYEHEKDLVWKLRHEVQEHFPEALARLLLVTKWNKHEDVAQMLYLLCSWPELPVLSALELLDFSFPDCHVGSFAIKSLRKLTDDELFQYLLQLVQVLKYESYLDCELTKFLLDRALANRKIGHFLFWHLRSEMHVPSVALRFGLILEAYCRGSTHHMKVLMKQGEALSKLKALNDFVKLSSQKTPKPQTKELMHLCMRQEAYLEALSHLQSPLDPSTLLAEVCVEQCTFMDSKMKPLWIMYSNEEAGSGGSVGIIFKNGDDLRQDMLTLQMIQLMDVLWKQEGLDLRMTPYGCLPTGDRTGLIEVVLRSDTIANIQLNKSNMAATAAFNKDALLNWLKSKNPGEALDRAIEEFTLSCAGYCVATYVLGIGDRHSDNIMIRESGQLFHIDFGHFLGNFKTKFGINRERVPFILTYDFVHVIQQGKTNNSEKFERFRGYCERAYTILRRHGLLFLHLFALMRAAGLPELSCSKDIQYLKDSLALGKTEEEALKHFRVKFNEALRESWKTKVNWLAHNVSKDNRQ
T4 sequence (P27986 whole entry partner): as the sequence (P27986 whole entry partner) above

| Compound | pIC50 [1] | pIC50 [2] | pIC50 [3] | pIC50 [4] | inhibition at 1 µM ([1]; 1 μM, read-out: PI3Kα % inhib) [%] | inhibition at 10 µM ([1]; read-out: PI3Kα % inhib) [%] | inhibition at 1 µM [2] [%] | inhibition at 10 µM [2] [%] | pEC50 [5] | inhibition at 10 µM [3] [%] | inhibition at 1 µM ([4]; read-out: PI3Kδ % inhib) [%] | inhibition at 10 µM ([4]; read-out: PI3Kδ % inhib) [%] | pEC50 [6] | inhibition at 0.1 µM ([4]; 0.1 μM, read-out: PI3Kδ % inhib) [%] | increase in gamma potency compared to analog without amino substituent on the purine ring [2] [×] |
| --- | --- | --- | --- | --- | --- | --- | --- | --- | --- | --- | --- | --- | --- | --- | --- |
| c1ccc(-c2nc3ccccc3nc2CNc2ncnc3[nH]cnc23)cc1 [Compound Q16] | 4.29 | 4.69 | 4.84 | 6.72 | – | – | – | – | – | – | – | – | – | – | – |
| Cc1cccc2nc(C(C)Nc3ncnc4[nH]cnc34)c(-c3ccc(F)cc3)nc12 (stereo not drawn) [Compound Q7] | – | – | – | – | 28 | 88 | 61 | 95 | 5.45 | 77 | 71 | 100 | 4.82 | – | – |
| Cc1cccc2nc(C(C)n3cnc4c(N)ncnc43)c(-c3ccccc3)nc12 (stereo not drawn) [Compound Q6, 9-[1-(5-methyl-3-phenylquinoxalin-2-yl)ethyl]-9H-purin-6-amine] | – | – | – | – | – | 32 | 48 | 89 | < 4.70 | 61 | 86 | 100 | < 4.70 | 63 | – |
| CCC(Nc1ncnc2[nH]cnc12)c1nc2cccc(C)c2nc1-c1ccccc1 (stereo not drawn) [Compound Q8] | – | – | – | – | – | 50 | 30 | 83 | < 4.70 | 53 | 58 | 100 | < 4.70 | – | – |
| Nc1nc(NCc2nc3ccccc3nc2-c2ccccc2)c2nc[nH]c2n1 [Compound Q17] | 4.00 | 6.16 | 5.07 | 7.12 | – | – | – | – | – | – | – | – | – | – | 30 |
| CC(Nc1ncnc2[nH]cnc12)c1nc2ccccc2nc1-c1c(F)cccc1F (stereo not drawn) [Compound Q10] | – | – | – | – | – | 30 | 12 | 82 | < 4.70 | 30 | 74 | 99 | < 4.70 | – | – |
| Cc1ccc(-c2nc3ccccc3nc2C(C)Nc2ncnc3[nH]cnc23)cc1 (stereo not drawn) [Compound Q11] | – | – | – | – | – | 53 | – | 79 | < 4.70 | 76 | 45 | 99 | < 4.70 | – | – |
| Nc1ncnc2c1ncn2Cc1nc2ccccc2nc1-c1ccccc1 [Compound Q13] | – | 4.33 | – | 5.93 | – | – | – | – | – | – | – | – | – | – | – |
| c1ccc(-c2nc3ccccc3nc2CSc2ncnc3[nH]cnc23)cc1 [Compound Q14] | – | 4.76 | – | 6.02 | – | – | – | – | – | – | – | – | – | – | – |
| Nc1nc(SCc2nc3ccccc3nc2-c2ccccc2)c2nc[nH]c2n1 [Compound Q15] | – | 5.62 | – | 6.60 | – | – | – | – | – | – | – | – | – | – | 8 |
